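Interpolation was linear, between the two tested concentrations surrounding the appropriate level; five concentrations were tested over 48 hours in 96-well plates. TGI marks complete inhibition of growth.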
How the values were obtained:
Experiment in all cases: growth of human tumour cells (NCI), 48 h
786-0 renal = system: 786-0 renal
A549 NSCLC = system: A549 NSCLC
ACHN renal = system: ACHN renal
CAKI-1 renal = system: CAKI-1 renal
CCRF-CEM leukemia = system: CCRF-CEM leukemia
COLO 205 colon = system: COLO 205 colon
DLD-1 colon = system: DLD-1 colon
DMS 114 small cell lung = system: DMS 114 small cell lung
DMS 273 small cell lung = system: DMS 273 small cell lung
EKVX NSCLC = system: EKVX NSCLC
HCC-2998 colon = system: HCC-2998 colon
HCT-116 colon = system: HCT-116 colon
HCT-15 colon = system: HCT-15 colon
HL-60(TB) leukemia = system: HL-60(TB) leukemia
HOP-18 NSCLC = system: HOP-18 NSCLC
HOP-62 NSCLC = system: HOP-62 NSCLC
HOP-92 NSCLC = system: HOP-92 NSCLC
HT29 colon = system: HT29 colon
IGROV1 ovarian = system: IGROV1 ovarian
K-562 leukemia = system: K-562 leukemia
KM12 colon = system: KM12 colon
KM20L2 colon = system: KM20L2 colon
LOX IMVI melanoma = system: LOX IMVI melanoma
LXFL 529 NSCLC = system: LXFL 529 NSCLC
M14 melanoma = system: M14 melanoma
M19-MEL melanoma = system: M19-MEL melanoma
MALME-3M melanoma = system: MALME-3M melanoma
MOLT-4 leukemia = system: MOLT-4 leukemia
NCI-H226 lung = system: NCI-H226 lung
NCI-H23 lung = system: NCI-H23 lung
NCI-H460 lung = system: NCI-H460 lung
NCI-H522 lung = system: NCI-H522 lung
OVCAR-3 ovarian = system: OVCAR-3 ovarian
OVCAR-4 ovarian = system: OVCAR-4 ovarian
OVCAR-5 ovarian = system: OVCAR-5 ovarian
OVCAR-8 ovarian = system: OVCAR-8 ovarian
RPMI-8226 leukemia = system: RPMI-8226 leukemia
RXF 393 renal = system: RXF 393 renal
RXF-631 renal = system: RXF-631 renal
SF-268 CNS = system: SF-268 CNS
SF-295 CNS = system: SF-295 CNS
SF-539 CNS = system: SF-539 CNS
SK-MEL-2 melanoma = system: SK-MEL-2 melanoma
SK-MEL-28 melanoma = system: SK-MEL-28 melanoma
SK-MEL-5 melanoma = system: SK-MEL-5 melanoma
SK-OV-3 ovarian = system: SK-OV-3 ovarian
SN12C renal = system: SN12C renal
SNB-19 CNS = system: SNB-19 CNS
SNB-75 CNS = system: SNB-75 CNS
SNB-78 CNS = system: SNB-78 CNS
SR leukemia = system: SR leukemia
SW-620 colon = system: SW-620 colon
TK-10 renal = system: TK-10 renal
U251 CNS = system: U251 CNS
UACC-257 melanoma = system: UACC-257 melanoma
UACC-62 melanoma = system: UACC-62 melanoma
UO-31 renal = system: UO-31 renal
XF 498 CNS = system: XF 498 CNS

Measured: TGI

O=C1COc2cc(NC(=S)Nc3ccccc3)ccc2N1
> 100 µM: 786-0 renal | A549 NSCLC | ACHN renal | CAKI-1 renal | CCRF-CEM leukemia | COLO 205 colon | DLD-1 colon | DMS 114 small cell lung | DMS 273 small cell lung | EKVX NSCLC | HCC-2998 colon | HCT-116 colon | HCT-15 colon | HL-60(TB) leukemia | HOP-18 NSCLC | HOP-62 NSCLC | HOP-92 NSCLC | HT29 colon | IGROV1 ovarian | K-562 leukemia | KM12 colon | KM20L2 colon | LOX IMVI melanoma | LXFL 529 NSCLC | M14 melanoma | M19-MEL melanoma | MALME-3M melanoma | MOLT-4 leukemia | NCI-H226 lung | NCI-H23 lung | NCI-H460 lung | NCI-H522 lung | OVCAR-3 ovarian | OVCAR-4 ovarian | OVCAR-5 ovarian | OVCAR-8 ovarian | RPMI-8226 leukemia | RXF 393 renal | RXF-631 renal | SF-268 CNS | SF-295 CNS | SF-539 CNS | SK-MEL-2 melanoma | SK-MEL-28 melanoma | SK-MEL-5 melanoma | SK-OV-3 ovarian | SN12C renal | SNB-19 CNS | SNB-75 CNS | SNB-78 CNS | SR leukemia | SW-620 colon | TK-10 renal | U251 CNS | UACC-257 melanoma | UACC-62 melanoma | UO-31 renal | XF 498 CNS
